Results as given in patent US20260193272A1, “SELENIUM CONTAINING HETEROCYCLE COMPOUNDS AND USE THEREOF” (HELIOS HUAMING BIOPHARMA CO., LTD., priority 2022, published 2026).
Read-outs that look alike come from different tables or passages of the source.

Target: T1, PAD4 enzyme (Homo sapiens, UniProt Q9UM07)
T1 construct: PAD4 enzyme was diluted to 30 nM in Assay Buffer
Test: In-vitro measurement for enzymatic PAD4 citrullination inhibition activity (ammonia release)
Format: biochemical
Experimental: Citrullination was detected via ammonia release based on published methodology (Nature Chemical Biology, 2015, 11: 189-191).
PAD4 enzyme was diluted to 30 nM in Assay Buffer (100 mM HEPES, 50 mM NaCl, 2 mM DTT, 0.6 mg/ml BSA, pH 8) and added to wells containing various concentrations of compound or DMSO vehicle (0.8% final) in a high-volume black 96-well plate (Greiner). Following a 60-min preincubation at 27° C., the reaction was initiated by the addition of substrate (3 mM BAEE in 100 mM HEPES, 50 mM NaCl, […] CaCl2, 2 mM DTT, pH 8). The reaction was stopped after 90 min by the addition of stop/detection buffer containing 50 mM EDTA, 2.6 mM o-phthalaldehyde and 2.6 mM DTT. Assays were incubated at 27° C. for 120 min before measuring fluorescence (λex 410/λem 476) on an Envision plate reader (PerkinElmer). After which IC50 values were calculated using GraphPad Prism 8.0.

[1] = read-out: IC50 of inhibition enzymatic activity of PAD4 (Colorimetric assays, Nature Chemical Biology, 2015, 11: 189-191)
[2] = direct comparison of prior art and selenium containing compounds, read-out: IC50 for enzymatic PAD4 citrullination inhibition

T1 sequence (Q9UM07 whole entry): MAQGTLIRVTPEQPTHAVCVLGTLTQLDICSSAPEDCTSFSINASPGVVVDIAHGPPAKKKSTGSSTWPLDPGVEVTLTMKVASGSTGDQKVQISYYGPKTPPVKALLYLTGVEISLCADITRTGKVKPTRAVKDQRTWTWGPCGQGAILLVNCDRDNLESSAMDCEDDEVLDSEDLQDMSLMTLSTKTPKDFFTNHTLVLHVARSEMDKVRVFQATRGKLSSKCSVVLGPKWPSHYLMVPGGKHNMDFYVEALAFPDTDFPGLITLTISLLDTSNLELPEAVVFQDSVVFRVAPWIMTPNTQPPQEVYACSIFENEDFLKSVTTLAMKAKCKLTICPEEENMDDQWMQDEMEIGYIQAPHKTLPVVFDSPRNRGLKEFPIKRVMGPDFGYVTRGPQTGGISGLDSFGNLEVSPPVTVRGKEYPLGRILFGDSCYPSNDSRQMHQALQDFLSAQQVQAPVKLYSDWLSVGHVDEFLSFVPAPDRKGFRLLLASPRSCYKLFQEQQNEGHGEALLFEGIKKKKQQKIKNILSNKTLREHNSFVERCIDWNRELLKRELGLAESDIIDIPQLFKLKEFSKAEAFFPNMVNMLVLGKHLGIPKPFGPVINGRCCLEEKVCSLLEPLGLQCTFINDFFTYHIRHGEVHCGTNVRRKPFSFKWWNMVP

Row | Structure (SMILES) | IC50 [1] [nM] | IC50 [2] [nM]
1 | COc1cc(C(=O)N2C[C@H](N)CC[C@@H]2C)cc2nc(-c3cc4[se]c(C)nc4n3CC3CC3)n(C)c12 [HH-8] | ≤ 50 | 
2 | COc1cc(C(=O)N2C[C@H]3CC[C@@H]2[C@@H]3N)cc2nc(-c3cc4[se]c(C5CC5)nc4n3CC3CC3)n(C)c12 [HH-7] | ≤ 50 | 
3 | COc1cc(C(=O)N2C[C@H](N)C[C@@H](F)C2)cc2nc(-c3cc4[se]c(-c5ccccn5)cc4n3CC3CC3)n(C)c12 [HH-63] | 100 to 500 | 
4 | COc1cc(C(=O)N2C[C@H](N)CC[C@@H]2C)cc2nc(-c3cc4[se]c(C)cc4n3CC3CC3)n(C)c12 [HH-49] | ≤ 50 | 
5 | COc1cc(C(=O)N2C[C@H]3CC[C@@H]2[C@@H]3N)cc2nc(-c3cc4[se]c(C)nc4n3CC3CC3)n(C)c12 [HH-9] | ≤ 50 | 
6 | Cc1c(-c2cc3[se]c(-c4ccccn4)nc3n2CC2CC2)nn2cc(C(=O)N3C[C@H](N)C[C@@H](F)C3)ccc12 [HH-71] | 100 to 500 | 
7 | COc1cc(C(=O)N2C[C@H](N)C[C@@H](F)C2)cc2nc(-c3cc4[se]c(C)cc4n3CC3CC3)n(C)c12 [HH-51] | ≤ 50 | 
8 | COc1cc(C(=O)N2CCC[C@@H](N)C2)cc2nc(-c3cc4[se]c(C)nc4n3CC3CCC3)n(C)c12 [HH-17] | ≤ 50 | 
9 | COc1cc(C(=O)N2C[C@H](N)CC[C@@H]2C)cc2nc(-c3cc4[se]c(-c5ccncc5)nc4n3CC3CC3)n(C)c12 [HH-41] | 100 to 500 | 
10 | COc1cc(C(=O)N2C[C@H]3CC[C@@H]2[C@@H]3N)cc2nc(-c3cc4[se]c(C)nc4n3CC3CCC3)n(C)c12 [HH-16] | ≤ 50 | 
11 | COc1cc(C(=O)N2C[C@H]3CC[C@@H]2[C@@H]3N)cc2nc(-c3cc4[se]c(C)nc4n3Cc3ccncc3)n(C)c12 [HH-30] | 100 to 500 | 
12 | CCn1c(-c2nc3cc(C(=O)N4C[C@H]5CC[C@@H]4[C@@H]5N)cc(OC)c3n2C)cc2[se]c(C)nc21 [HH-20] | 100 to 500 | 
13 | COc1cc(C(=O)N2CCC[C@@H](N)C2)cc2nc(-c3cc4[se]c(C)cc4n3CC3CC3)n(C)c12 [HH-50] | 50 to 100 | 
14 | COc1cc(C(=O)N2C[C@H](N)C[C@@H](F)C2)cc2nc(-c3cc4[se]c(C5CCCN5)cc4n3CC3CC3)n(C)c12 (some centres unmarked) [HH-53] | 50 to 100 | 
15 | COc1cc(C(=O)N2C[C@H](N)C[C@@H](F)C2)cc2nc(-c3cc4[se]c(-c5cccc(C)c5)nc4n3CC3CC3)n(C)c12 [HH-46] | > 500 | 
16 | CCc1nc2c(cc(-c3nc4cc(C(=O)N5C[C@H]6CC[C@@H]5[C@@H]6N)cc(OC)c4n3C)n2CC2CC2)[se]1 [HH-1] | ≤ 50 | 
17 | COc1cc(C(=O)N[C@@H]2CC[C@H](C)NC2)cc2nc(-c3cc4cc[se]c4n3CC3CC3)n(C)c12 [HH-66] | 100 to 500 | 
18 | Cc1nc2c(cc(-c3nc4cc(C(=O)N5C[C@H]6CC[C@@H]5[C@@H]6N)ccn4c3C)n2CC2CC2)[se]1 [HH-74] | 50 to 100 | 
19 | COc1cc(C(=O)N2C[C@H](N)C[C@@H](F)C2)cc2nc(-c3cc4[se]ccc4n3CC3CC3)n(C)c12 [HH-47] | 50 to 100 | 
20 | COc1cc(C(=O)N2C[C@H]3CC[C@@H]2[C@@H]3N)cc2nc(-c3cc4[se]c(-c5cccc(C)c5)cc4n3CC3CC3)n(C)c12 [HH-57] | 100 to 500 | 

Row | Structure (SMILES) | IC50 [1] [nM] | IC50 [2] [nM]
21 | COc1cc(C(=O)N2C[C@H](N)CC[C@@H]2C)cc2nc(-c3cc4[se]c(C)nc4n3Cc3ccc(C(F)(F)F)cc3)n(C)c12 [HH-28] | > 500 | 
22 | COc1cc(C(=O)N2C[C@H](N)CC[C@@H]2C)cc2nc(-c3cc4[se]c(C5CCCN5)cc4n3CC3CC3)n(C)c12 (some centres unmarked) [HH-54] | 50 to 100 | 
23 | CCc1nc2c(cc(-c3nc4cc(C(=O)N5C[C@H](N)CC[C@@H]5C)cc(OC)c4n3C)n2CC2CC2)[se]1 [HH-2] | ≤ 50 | 
24 | COc1cc(C(=O)N2C[C@H](N)C[C@@H](F)C2)cc2nc(-c3cc4cc[se]c4n3CC3CC3)n(C)c12 [HH-64] | 50 to 100 | 
25 | COc1cc(C(=O)N2CCC[C@@H](N)C2)cc2nc(-c3cc4sc(C5CC5)nc4n3CC3CC3)n(C)c12 [Cpd-118, reference compound] |  | 66.8
26 | Cc1c(-c2cc3[se]c(-c4ccccn4)nc3n2CC2CC2)nn2cc(C(=O)N3C[C@H](N)CC[C@@H]3C)ccc12 [HH-70] | 100 to 500 | 
27 | COc1cc(C(=O)N2C[C@H](N)C[C@@H](F)C2)cc2nc(-c3cc4[se]c(C)nc4n3CC3CC3)n(C)c12 [HH-10] | ≤ 50 | 
28 | COc1cc(C(=O)N2C[C@H](N)CC[C@@H]2C)cc2nc(-c3cc4[se]c(C)nc4n3Cc3ccncc3)n(C)c12 [HH-29] | 100 to 500 | 
29 | Cc1nc2c(cc(-c3nc4cc(C(=O)N5C[C@H](N)C[C@@H](F)C5)ccn4c3C)n2CC2CC2)[se]1 [HH-73] | 50 to 100 | 
30 | COc1cc(C(=O)N2C[C@H]3CC[C@@H]2[C@@H]3N)cc2nc(-c3cc4[se]c(C)cc4n3CC3CC3)n(C)c12 [HH-52] | ≤ 50 | 25.1
31 | Cc1c(-c2cc3[se]c(-c4ccccn4)nc3n2CC2CC2)nn2cc(C(=O)N3C[C@H]4CC[C@@H]3[C@@H]4N)ccc12 [HH-72] | 100 to 500 | 
32 | COc1cccc(Cn2c(-c3nc4cc(C(=O)N5C[C@H](N)CC[C@@H]5C)cc(OC)c4n3C)cc3[se]c(C)nc32)c1 [HH-27] | 100 to 500 | 
33 | COc1ccccc1-c1cc2c(cc(-c3nc4cc(C(=O)N5C[C@H](N)C[C@@H](F)C5)cc(OC)c4n3C)n2CC2CC2)[se]1 [HH-60] | 100 to 500 | 
34 | COc1cc(C(=O)N2C[C@H](N)CC(F)(F)C2)cc2nc(-c3cc4[se]c(C)nc4n3CC3CC3)n(C)c12 [HH-13] | > 500 | 
35 | COc1ccc(-c2nc3c(cc(-c4nc5cc(C(=O)N6C[C@H](N)C[C@@H](F)C6)cc(OC)c5n4C)n3CC3CC3)[se]2)cc1 [HH-40] | 100 to 500 | 
36 | COc1cc(C(=O)N2C[C@H](N)C[C@@H](F)C2)cc2nc(-c3cc4[se]c(C)nc4n3CC3CCC3)n(C)c12 [HH-18] | ≤ 50 | 
37 | COc1cc(C(=O)N2C[C@H](N)CC[C@@H]2C)cc2nc(-c3cc4[se]c(C)nc4n3CC3CCC3)n(C)c12 [HH-15] | ≤ 50 | 
38 | COc1cc(C(=O)N2C[C@H](N)C[C@@H](F)C2)cc2nc(-c3cc4[se]c(C5CCNCC5)nc4n3CC3CC3)n(C)c12 [HH-36] | 100 to 500 | 
39 | COc1cc(C(=O)N2C[C@H](N)CC[C@@H]2C)cc2nc(-c3cc4[se]ccc4n3CC3CC3)n(C)c12 [HH-48] | 100 to 500 | 
40 | COc1cc(C(=O)N2C[C@H](N)CC[C@@H]2C)cc2nc(-c3cc4[se]c(C)nc4n3CC(C)(C)C)n(C)c12 [HH-22] | 100 to 500 | 

Row | Structure (SMILES) | IC50 [1] [nM] | IC50 [2] [nM]
41 | COc1cc(C(=O)N2C[C@H](N)CC[C@@H]2C)cc2nc(-c3cc4[se]c(C)nc4n3Cc3ccsc3)n(C)c12 [HH-34] | 50 to 100 | 
42 | COc1cc(C(=O)N2C[C@H](N)CC[C@@H]2C)cc2nc(-c3cc4[se]c(C5CCNCC5)nc4n3CC3CC3)n(C)c12 [HH-35] | 50 to 100 | 
43 | COc1cc(C(=O)N2C[C@H](N)CC[C@@H]2C)cc2nc(-c3cc4[se]c(C)nc4n3CC(F)(F)F)n(C)c12 [HH-23] | 100 to 500 | 
44 | COc1ccccc1-c1cc2c(cc(-c3nc4cc(C(=O)N5C[C@H](N)CC[C@@H]5C)cc(OC)c4n3C)n2CC2CC2)[se]1 [HH-59] | ≤ 50 | 
45 | Cc1nc2c(cc(-c3nc4cc(C(=O)N5C[C@H](N)CC[C@@H]5C)ccn4c3C)n2CC2CC2)[se]1 [HH-75] | ≤ 50 | 
46 | CCn1c(-c2nc3cc(C(=O)N4C[C@H](N)C[C@@H](F)C4)cc(OC)c3n2C)cc2[se]c(C)nc21 [HH-21] | 100 to 500 | 
47 | COc1cc(C(=O)N2C[C@H]3CC[C@@H]2[C@@H]3N)cc2nc(-c3cc4[se]c(-c5ccc(C)cc5)cc4n3CC3CC3)n(C)c12 [HH-56] | 100 to 500 | 
48 | COc1cc(C(=O)N2C[C@H](N)CC[C@@H]2C)cc2nc(-c3cc4[se]c(-c5ccccn5)nc4n3CC3CC3)n(C)c12 [HH-43] | 100 to 500 | 
49 | COc1cc(C(=O)N2CCC[C@@H](N)C2)cc2nc(-c3cc4[se]c(C)nc4n3CC3CC3)n(C)c12 [HH-12] | ≤ 50 | 
50 | COc1cc(C(=O)N2CCC[C@@H](N)C2)cc2nc(-c3cc4[se]c(C5CC5)nc4n3CC3CC3)n(C)c12 [HH-4] | ≤ 50 | 22.4
51 | COc1cc(C(=O)N2C[C@H](N)CC[C@@H]2C)cn2nc(-c3cc4[se]c(C)nc4n3CC3CC3)c(C)c12 [HH-67] | 100 to 500 | 
52 | COc1cc(C(=O)N2C[C@H]3CC[C@@H]2[C@@H]3N)cn2nc(-c3cc4[se]c(C)nc4n3CC3CC3)c(C)c12 [HH-68] | 50 to 100 | 
53 | COc1cc(C(=O)N2C[C@H](N)CC[C@@H]2C)cc2nc(-c3cc4[se]c(-c5ccccn5)cc4n3CC3CC3)n(C)c12 [HH-62] | 50 to 100 | 
54 | COc1cc(C(=O)N2C[C@H]3CC[C@@H]2[C@@H]3N)cc2nc(-c3cc4[se]c(C5CCCN5)cc4n3CC3CC3)n(C)c12 (some centres unmarked) [HH-55] | 100 to 500 | 
55 | COc1ccccc1Cn1c(-c2nc3cc(C(=O)N4C[C@H](N)CC[C@@H]4C)cc(OC)c3n2C)cc2[se]c(C)nc21 [HH-26] | 100 to 500 | 
56 | COc1ccccc1-c1nc2c(cc(-c3nc4cc(C(=O)N5C[C@H]6CC[C@@H]5[C@@H]6N)cc(OC)c4n3C)n2CC2CC2)[se]1 [HH-39] | > 500 | 
57 | COc1cc(C(=O)N2C[C@H](N)C[C@@H](F)C2)cn2nc(-c3cc4[se]c(C)nc4n3CC3CC3)c(C)c12 [HH-69] | 50 to 100 | 
58 | COc1cc(C(=O)N2C[C@H]3CC[C@@H]2[C@@H]3N)cc2nc(-c3cc4sc(C)cc4n3CC3CC3)n(C)c12 [Cpd-27, reference compound] |  | 272
59 | COc1ccc(-c2cc3c(cc(-c4nc5cc(C(=O)N6C[C@H]7CC[C@@H]6[C@@H]7N)cc(OC)c5n4C)n3CC3CC3)[se]2)cc1 [HH-58] | 100 to 500 | 
60 | CCc1nc2c(cc(-c3nc4cc(C(=O)N5C[C@H](N)C[C@@H](F)C5)cc(OC)c4n3C)n2CC2CC2)[se]1 [HH-3] | ≤ 50 | 
